Data set [1] relates to human OA chondrocytes. Nature of the data set: IL-1β-induced nitric oxide (NO) generation in human OA chondrocytes. It is filed as cell-based. The settings on record: for concentration at which significant inhibition of IL-1β-induced NO release was observed when used alone: chondrocytes, previously demonstrated. The method, then:
The effectiveness of NR on inhibition of IL-1β-induced nitric oxide (NO) generation in human chondrocytes was influenced by the presence or absence of serum (which contains PNP) in the cell culture media. Human OA chondrocytes (donor OA278) were treated with a PNP inhibitor Ulodesine (5 uM) for 2 h and then NR (10 or 100 uM) for 1 h, followed by IL1β (2 ng/ml) for 24 h under serum (10% FCS)-present (FIG. 6A) or serum-free condition (FIG. 6B). The conditioned media was used for measuring generation of nitric oxide (NO), a known contributor of cartilage degradation.
Effectiveness of combination of low-dose of NAD precursors (NR or NRH) with a PNP inhibitor Ulodesine on inhibition of IL-1β-induced nitric oxide (NO) generation in human chondrocytes under the serum-presence condition. Human OA chondrocytes from donor OA277 (FIG. 7A) or OA279 (FIG. 7B) were treated with Ulodesine (5 uM) for 2 h and then NR or NRH at 10 uM for 1 h, followed by IL1p (2 ng/ml) for 24 h under serum-present (10% FCS) condition. The conditioned media was used for measuring NO generation.

The subject of data set [2] is MSU crystal-induced inflammation. In words: MSU crystal-induced inflammation in the gout-like air pouch model in mice. It is filed as in vivo. The settings on record: via gavage, 400 mg/kg/day. The method, then:
It was observed that blood NAD levels decrease, correlated with increase in CD38 expression in peripheral blood mononuclear cells in gout patients compared to healthy subjects. […] The effect of oral supplementation of NR or NRH (via gavage, 400 mg/kg/day) on MSU crystal-induced inflammation in the gout-like air pouch model in mice was tested (FIG. 8). The development of the air pouch leads to a pouch lining tissue that is morphologically like the synovium in joints, in which injection of sterile-filtered air under the skin on the back of the test animal provides an environment that is used to simulate the effects of diseases such as gout. […] Given the potential of Ulodesine in lowering uric acid and of NR or NRH in limiting MSU crystal-induced inflammation, combination of NR or NRH with Ulodesine, or other PNP inhibitors, presents a novel therapeutic approach for gout.

For data set [3] the following is noted: metabolized by PNP; cited from earlier work.
For data set [4] the following is noted: cited from earlier work.
The next data set deals with gout patients. The settings on record: each arm: 40, 80 and 120 mg per day; 60 gout patients with baseline SU ≥8 mg/dL; cited from earlier work.
The next data set concerns the target PNP (Homo sapiens, UniProt P00491). As to conditions: cited from earlier work.
For data set [5], the system named is human OA chondrocytes. Nature of the data set: Cellular NAD, NADH and NAD/NADH ratio in human OA chondrocytes. It is filed as cell-based. The source says: (§1) In this study, it was observed that CD38 expression is increased in human knee cartilage of both osteoarthritis (OA) and aged donors (FIGS. 1A and 1B), in primary human knee OA chondrocytes (FIG. 1C) and in chondrocytes stimulated with IL-1, a pro-inflammatory cytokine implicated to play an important role in OA pathogenesis (FIG. 1E). […] In addition, NRH prevented IL-1β-induced CD38 expression at both mRNA and protein levels (FIGS. 2D and 2E) and decline of NAD levels and NAD/NADH ratio (FIGS. 2F and 2G). […] It was observed that NRH has higher potency than NR to inhibit IL-1β-induced catabolic responses in chondrocytes, evidenced by that similar efficacy was achieved by NRH used at concentration 10 times less than NR (data not shown).

For another data set, the system named is CD38. Nature of the data set: IL-1β-induced CD38 expression in chondrocytes. It is filed as cell-based, human. As to conditions: mRNA and protein levels.
Text: as §1

The next data set has as its system MMP3. Nature of the data set: IL-1β-induced MMP3 expression at cellular and tissue levels. In kind it is cell-based, human. As to conditions: cellular (mRNA and protein) levels and tissue levels.
Text: as §1

The next data set concerns MMP13. Nature of the data set: IL-1β-induced MMP13 expression at cellular and tissue levels. As to conditions: cellular (mRNA and protein) levels and tissue levels. In kind it is cell-based, human.
Text: as §1

Data set [6] concerns cartilage matrix degradation. In words: IL-1β-induced release of matrix protein glycosaminoglycan (GAG). It is filed as cell-based.
Text: as §1

In another data set the test system is chondrocytes. In words: IL-1β-induced catabolic responses in chondrocytes, NRH versus NR. It is filed as cell-based. The settings on record: inhibition of IL-1β-induced catabolic responses; data not shown.
Text: as §1

In the next data set the test system is post-traumatic OA model. Nature of the data set: Post-traumatic OA model (DMM surgery) in mice, oral NRH. In kind it is in vivo. The protocol: Given that NRH is a natural NAD precursor with oral bioavailability and its ability to not only promote NAD^+ biosynthesis, but also prohibit NAD^+ degradation by inhibiting CD38, it was next tested whether oral administration of NRH limits OA development in mice using a post-traumatic OA model. Destabilization of medial meniscus (DMM) surgery was performed on the right knee of mice to cause joint injury and started NRH treatment through gavage 2 week after the surgery. Pain behaviors such as pain sensitivity and spontaneous pain were evaluated by Von Frey and static weight bearing tests, respectively, at baseline and every 2 weeks after the surgery. At 10 weeks after the surgery, mice were sacrificed, and knee OA pathological changes including cartilage degradation, synovial inflammation and osteophyte formation were assessed.

The conditions of data set [7]: cited from earlier work. The source holds these as a separate data set.
Where [8] appears, read: 10 uM alone, serum-present (10% FCS), donors OA277, OA279.
[9] abbreviates: human OA chondrocytes stimulated with NRH.
Setting [10] is: NRH by gavage from 2 weeks after DMM surgery, assessed at 10 weeks.
[11] abbreviates: at 6, 8 and 10 weeks after the surgery.

Sequence of PNP (P00491 whole entry): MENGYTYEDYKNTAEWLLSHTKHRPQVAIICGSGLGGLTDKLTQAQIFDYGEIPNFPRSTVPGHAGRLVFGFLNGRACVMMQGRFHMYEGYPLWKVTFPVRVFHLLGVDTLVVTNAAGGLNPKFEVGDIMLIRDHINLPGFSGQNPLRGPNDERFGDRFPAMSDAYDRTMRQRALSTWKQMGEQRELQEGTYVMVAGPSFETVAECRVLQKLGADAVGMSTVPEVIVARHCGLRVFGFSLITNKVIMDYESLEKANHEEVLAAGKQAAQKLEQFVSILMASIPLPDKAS

Take `NC(=O)c1ccc[n+]([C@@H]2O[C@H](CO)[C@@H](O)[C@H]2O)c1` [NR, nicotinamide riboside]: the “effect on IL-1β-induced NO release” value in the data set on human OA chondrocytes [1] (setting [8]) was “little effect”; in the data set on human OA chondrocytes [1] (NR 10 and 100 uM, serum-free, donor OA278), “robust inhibition”; in the data set with human OA chondrocytes [1] (NR 10 and 100 uM, serum-present (10% FCS), donor OA278), “little effect”. Also, the “concentration at which significant inhibition of IL-1β-induced NO release was observed when used alone” value in the data set on human OA chondrocytes [1] turned out to be 200 µM. Moreover, the “MSU crystal-induced infiltrating inflammatory cells” value in [2] is reported as “significantly inhibited”. In addition, in data set [3], the “stability in plasma (degradation to NAM)” value is “rapidly degraded”. Further, the tolerability and safety entry in [4] (chronic oral supplementation, human) is given as “well-tolerated, safe”. Further, the “human NAD+ metabolism” value in [4] (chronic oral supplementation) is “boosted”. Further, the “blood pressure and exercise performance” value in data set [4] (dietary supplementation, elderly individuals) was “only mild benefits”. Besides, in data set [4] (nondiabetic men with obesity), the “glucose tolerance and β-cell secretory capacity” value is reported as “no significant impact”. Besides, the skeletal muscle mitochondria entry in [4] (obese and insulin-resistant men) is given as “no significant impact”.
For `O=c1[nH]cnc2c(CN3C[C@H](CO)[C@@H](O)C3)c[nH]c12` [Ulodesine], in the data set on gout patients, the “participants achieving the target SU of less than 6 mg/dL” value is listed as “approximately one third”. Besides, the “IC50 for PNP” value at PNP is listed as “in the nM concentration range”.
As for `NC(=O)C1=CN([C@@H]2O[C@H](CO)[C@@H](O)[C@H]2O)C=CC1` [NRH, dihydronicotinamide riboside], in the data set on human OA chondrocytes [5] (IL-1β stimulation), the “IL-1β-induced decline of NAD levels” value was “prevented” and the “IL-1β-induced decline of NAD/NADH ratio” value was “prevented”. Besides, in the data set with human OA chondrocytes [5] (setting [9]), the NAD/NADH ratio entry is “dramatically increased”, the “cellular levels of NAD” value is given as “dramatically increased” and the “cellular levels of NADH” value was “dramatically increased”. Moreover, the “IL-1β-induced CD38 expression” value with CD38 is “prevented”. In addition, in the data set with MMP3, the “IL-1β-induced expression of MMP3” value was “completely attenuated”. The “IL-1β-induced expression of MMP13” value in the data set on MMP13 is given as “completely attenuated”. The “IL-1β-induced release of glycosaminoglycan (GAG)” value in [6] is listed as “significantly inhibited”. Moreover, in the data set on chondrocytes, the “concentration of NRH relative to NR giving similar efficacy” value was 10 times less. Also, in the data set on post-traumatic OA model (setting [10]), the cartilage damage entry is on record as “significantly reduced”; the “osteophyte size and maturity” value is “significantly reduced”; the synovial inflammation result is reported as “significantly reduced”. Besides, in the data set on post-traumatic OA model (setting [11]), the “paw withdraw threshold (Von Frey)” value was “significantly increased” and the weight bearing capacity result is listed as “significantly increased”. The “effect on IL-1β-induced NO release” value with human OA chondrocytes [1] (setting [8]) is “little effect”. Also, the “concentration at which significant inhibition of IL-1β-induced NO release was observed when used alone” value in the data set on human OA chondrocytes [1] was 200 µM. Besides, the “MSU crystal-induced infiltrating inflammatory cells” value in data set [2] is given as “significantly inhibited”. For the same compound, the “NRH in circulation after NRH treatment” value in data set [7] (mice) is reported as “detectable”. Moreover, in [7] (mouse, in vivo), the “NR in circulation after NRH treatment versus after NR administration” value was “much higher levels” and the “stability compared to NR” value was “more stable”.

The record behind these values is patent US20250099496A1, “Dihydronicotinamide Riboside (NRH) Therapy for Osteoarthritis and other Conditions” (The Regents of the University of California, priority 2022, published 2025).
